Measured values taken from paper PMC4585029, “Agonist and antagonist effects of tobacco-related nitrosamines on human α4β2 nicotinic acetylcholine receptors” (Frontiers in Pharmacology, 2015).
“Also recorded” adds a separate entry of the source. Read-outs that look alike come from different tables or passages of the source.

Experiments:
(α7)5 nAChR = tested on: (α7)5 nAChR; set-up: method as in Dani and Bertrand, [2007]; settings: homopentameric receptors such as (α7)5; ref Dani and Bertrand, [2007]; cited from earlier work
α3β4 nAChR = tested on: α3β4 nAChR; set-up: method as in Nunes-Alves et al., [2012]; settings: in the presence of 100 μM nicotine; ref Nunes-Alves et al., [2012]; cited from earlier work
muscle subtype nAChR = tested on: muscle subtype nAChR; set-up: method as in Nunes-Alves et al., [2012]; settings: ref Nunes-Alves et al., [2012]; cited from earlier work
human α4β2 nAChRs = molecular target: T1, human α4β2 nAChRs (Homo sapiens, UniProt P17787+P43681); assay: cell-based; type: cell-based; settings: for voltage dependence of the fractional block at the steady state: NNN 10 μM with 10 μM nicotine, NNK 1 μM with 100 nM nicotine, different Vm; for Imax/Inico: maximal current relative to nicotine, whole-cell; for functional behaviour on α4β2 nAChRs: patch-clamp
T1 construct: expressed in transfected cells
T1 sequence (P43681 29-627 limits assumed): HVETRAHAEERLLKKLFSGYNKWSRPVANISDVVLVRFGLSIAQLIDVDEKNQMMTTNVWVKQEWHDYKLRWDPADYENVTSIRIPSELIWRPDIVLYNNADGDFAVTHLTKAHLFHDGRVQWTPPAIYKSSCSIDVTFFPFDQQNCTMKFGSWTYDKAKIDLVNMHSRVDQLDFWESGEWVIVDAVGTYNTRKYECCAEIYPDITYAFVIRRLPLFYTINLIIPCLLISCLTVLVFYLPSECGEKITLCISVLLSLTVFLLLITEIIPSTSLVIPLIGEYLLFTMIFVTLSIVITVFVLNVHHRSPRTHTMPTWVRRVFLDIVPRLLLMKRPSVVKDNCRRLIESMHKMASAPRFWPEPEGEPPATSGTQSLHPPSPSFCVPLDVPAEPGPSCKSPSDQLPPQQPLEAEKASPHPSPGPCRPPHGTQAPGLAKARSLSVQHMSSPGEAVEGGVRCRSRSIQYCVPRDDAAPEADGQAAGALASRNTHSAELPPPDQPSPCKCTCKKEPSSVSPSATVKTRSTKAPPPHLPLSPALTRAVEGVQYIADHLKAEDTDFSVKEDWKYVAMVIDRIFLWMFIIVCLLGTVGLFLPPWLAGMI
T1 sequence (P17787 26-502): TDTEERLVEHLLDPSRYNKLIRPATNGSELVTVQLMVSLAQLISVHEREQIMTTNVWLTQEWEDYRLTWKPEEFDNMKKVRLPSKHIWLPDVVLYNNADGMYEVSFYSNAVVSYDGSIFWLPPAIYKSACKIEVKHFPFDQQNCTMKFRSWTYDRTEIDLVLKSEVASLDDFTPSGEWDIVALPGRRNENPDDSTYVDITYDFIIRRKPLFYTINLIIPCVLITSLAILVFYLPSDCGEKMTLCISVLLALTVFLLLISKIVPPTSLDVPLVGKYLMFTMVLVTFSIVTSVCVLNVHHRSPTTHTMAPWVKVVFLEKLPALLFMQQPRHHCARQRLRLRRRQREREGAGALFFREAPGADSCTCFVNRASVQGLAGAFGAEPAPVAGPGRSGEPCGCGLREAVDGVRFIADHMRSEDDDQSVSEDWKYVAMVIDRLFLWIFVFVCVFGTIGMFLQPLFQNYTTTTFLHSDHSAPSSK
Protocol: HEK 293 cells stably expressing human α4β2 nAChRs were cultured by standard methods (Di Resta et al., [2010]). In brief, cultures were maintained in Dulbecco's modified Eagle's medium (Hyclone Laboratories), supplemented with 10% fetal calf serum (Hyclone), 4.5 g/l glutamine, […] hygromycin β, and 0.25 μg/ml amphoterycin B. Cells were grown at 37°C and 5% CO2. For patch-clamp experiments, cells were harvested by treatment with trypsin and plated onto 35 mm Petri dishes (Corning Inc.).
Cells were voltage-clamped by using the whole-cell configuration of the patch-clamp method. Currents were registered with an Axopatch 200B amplifier (Molecular Devices), at room temperature (20–22°C). Micropipettes (3–4 MΩ) were pulled from borosilicate capillaries (GMBH) with a P-97 Flaming/Brown Micropipette Puller (Sutter Instrument Co.). The cell capacitance and series resistance (up to about 75%) were always compensated. Currents were low-pass filtered at 2 kHz and acquired on-line at 5–10 kHz with Molecular Devices hardware and software (pClamp 8 and Axoscope 8). After patch rupture, we usually allowed 1–2 min for pipette solution exchange and signal stabilization, before applying our stimuli. Extracellular solutions were applied with an RSC-160 Rapid Solution Changer (BioLogic Science Instruments). The solution is delivered to the cells through borosilicate capillaries connected to Tygon tubes. Seven independent lines are available. […] The perfusing line was totally substituted whenever the drug was changed.
Unless otherwise indicated, chemicals, and drugs were purchased by Sigma-Aldrich Italia Srl. The extracellular solution contained (mM): NaCl 130, KCl 5, CaCl2 2, MgCl2 2, HEPES 10, D-glucose 5 (pH 7.4; adjusted with NaOH). Pipettes contained (mM): K-aspartate 120, NaCl 10, MgCl2 2, CaCl21.3, EGTA-KOH 10, HEPES 10, MgATP 1, (pH 7.3; adjusted with KOH). […] NNK and NNN (20 mM) were dissolved in water and kept refrigerated for no longer than 1 week. […] The final concentrations were obtained by serial dilution.
Data were analyzed with Clampfit 9.2 (Molecular Devices) and OriginPro 9 (OriginLab Co.). Theoretical curves best fitting the data were determined by a nonlinear least-squares method (Levenberg-Marquardt algorithm). For nAChR activation we used both a simple Hill function and the sum of two Hill expressions (Covernton and Connolly, [2000]). The single-term expression was:
The two-terms Hill expression was:
(2) IL/Imax=A/(1+EC50high/[L])^nH1+1-A/(1+EC50low/[L])^nH2
where A is the fraction of receptors in the high-affinity state; EC50high and EC50low are the EC50 values of the components at high and low affinity, respectively; nH1 and nH2 are the corresponding Hill coefficients, and the other symbols are as in Equation (1).
The function used to fit the desensitization data points (Figure 3) was:
(3) ISS/Ipeak=B+1-B/(1+[L]/IC50)^nH
ISS was found by fitting the current decay with a single exponential function and taking the steady state value of this function. A similar function was used to fit the fractional inhibition in Figures 4B, 5B.
(4) y=αNic[Nic]/EC50+αNNK[NNK]/EC50(NNK)/1+[Nic]/EC50+[NNK]/EC50(NNK)

[1] = cited from earlier work
[2] = tested on: epibatidine-sensitive nAChRs; set-up: method as in Schuller, [2007]; settings: SCLC cells, ref Schuller, [2007], read-out: EC50 measured in binding studies; cited from earlier work
[3] = two-terms Hill fit (Equation 2)

SMILES: O=NN1CCC[C@H]1c1cccnc1 [NNN, N'-nitrosonornicotine]
- IC50 (α3β4 nAChR): 1140 µM
- effect on the muscle subtype (muscle subtype nAChR): little effect
- voltage dependence of the fractional block at the steady state (human α4β2 nAChRs): independent of the applied Vm
- Imax/Inico (human α4β2 nAChRs; −80 mV): 0
- functional behaviour on α4β2 nAChRs (human α4β2 nAChRs): pure inhibitor
- IC50 (human α4β2 nAChRs; read-out: Inhibition IC50): ~0.001 µM
- IC50 (human α4β2 nAChRs; with 10 μM nicotine, steady state fractional current, −80 mV, read-out: Inhibition IC50): 0.00021 µM
- nAChR activation (whole-cell current) by the compound alone (human α4β2 nAChRs; −80 mV, NNN 10 μM and up to 100 μM): never produced nAChR activation; also recorded: did not elicit any whole-cell current
- concentrations normally encountered in smokers' plasma ([1]; ref Schuller, [2007]): < 0.1 nM

SMILES: CN1CCC[C@H]1c1cccnc1 [Nicotine, nicotine, reference compound]
- average current (human α4β2 nAChRs): 89.4 ± 19.4 pA
- nH of nicotine alone (Figure 4C) (human α4β2 nAChRs): 0.83
- nH of nicotine in the presence of 1 nM NNN (human α4β2 nAChRs): 0.92
- nH of nicotine in the presence of 1 μM NNN (human α4β2 nAChRs): 1
- peak current (human α4β2 nAChRs): 119 ± 24 pA

SMILES: CN(CCCC(=O)c1cccnc1)N=O [NNK, 4-(methylnitrosamine)-1-(3-pyridyl)-1-butanone]
- peak current (human α4β2 nAChRs; 10 nM nicotine plus 1 μM NNK, n = 11): 160 ± 30 pA
- average current (human α4β2 nAChRs; 100 nM nicotine plus 100 μM NNK, n = 8): 159.1 ± 25.1 pA
- potentiation of the current activated by nicotine (human α4β2 nAChRs; 1 μM NNK on 0.01 μM nicotine): 26%
- concentration of nicotine at which NNK reversed its effect (human α4β2 nAChRs; 1 μM NNK, estimated by fit with Equation 4): around 20 nM
- average peak current density (human α4β2 nAChRs; 10 μM NNK alone, −80 mV, n = 9): 5.75 ± 1.22 pA/pF
- concentration of nicotine at which sign reversal of NNK effect occurs (human α4β2 nAChRs; 100 μM NNK): approximately 400 nM
- potentiation of the current activated by nicotine (human α4β2 nAChRs; 100 μM NNK on 100 nM (0.1 μM) nicotine, −80 mV): approximately 80%
- measured peak current relative to the value in the presence of 300 μM nicotine (human α4β2 nAChRs; 100 μM NNK, −80 mV, n = 13): 0.14 ± 0.02
- nH of desensitization curve (human α4β2 nAChRs; Equation 3): 0.9
- inhibition at 100 µM (human α4β2 nAChRs; HEK293, read-out: inhibition of the current elicited by nicotine): 40%
- nicotine concentrations whose currents are potentiated by co-applied NNK (human α4β2 nAChRs; NNK co-applied with nicotine): ≤ 100 nM
- effect on the currents activated by 10 μM nicotine (human α4β2 nAChRs; NNK concentrations up to 100 nM): no effect
- voltage dependence of the fractional block at the steady state (human α4β2 nAChRs): independent of the applied Vm
- nH, Hill coefficient of single-term Hill fit (Equation 1) (human α4β2 nAChRs; activation by agonist alone, −80 mV): 0.44
- nH of inhibition curve (human α4β2 nAChRs; currents activated by 10 μM nicotine, Equation 3): 0.95
- fit parameters αNIC / αNNK of Equation 4 (human α4β2 nAChRs; fit of data with 1 μM NNK plus nicotine (Figure 5C)): 5 µM
- estimated maximal current activated by NNK, % of the current elicited by 300 μM nicotine (human α4β2 nAChRs; from Equation 1 fit, −80 mV): approximately 16%
- Imax/Inico (human α4β2 nAChRs; −80 mV): 0.16
- functional behaviour on α4β2 nAChRs (human α4β2 nAChRs): partial agonist
- IC50 (human α4β2 nAChRs; read-out: Desensitization IC50, fractional steady state current ISS/Ipeak vs agonist concentration, Equation 3): 1.7 µM
- EC50 (human α4β2 nAChRs; read-out: EC50 (single-term Hill, Equation 1), peak whole-cell currents at −80 mV, activation by agonist alone): 16.7 µM
- EC50 (human α4β2 nAChRs; read-out: EC50high, high-affinity component, two-terms Hill fit (Equation 2)): 0.035 µM
- EC50 (human α4β2 nAChRs; read-out: EC50low, low-affinity component, two-terms Hill fit (Equation 2)): 12.8 µM
- IC50 (human α4β2 nAChRs; read-out: Inhibition IC50, with 10 μM nicotine, steady state fractional current, −80 mV): > 100 µM
- Hill coefficient of the high-affinity component (nH1 in Table 1) (human α4β2 nAChRs; [3]): 1.2
- Hill coefficient of the low-affinity component (nH2 in Table 1) (human α4β2 nAChRs; [3]): 1.4
- NNK concentrations that elicited inward currents (human α4β2 nAChRs; −80 mV, NNK alone): higher than 10 nM
- EC50 [2]: ~17 µM
